The values that follow come from patent publication US20240239741A1, “META-ESTER AROMATIC DIAMINES, METHOD FOR PRODUCING SAME, AND POLYIMIDE HAVING SAID META-ESTER AROMATIC DIAMINES AS RAW MATERIAL” (SEIKA CORPORATION, priority 2021, published 2024).

As usually defined, the solubility is the concentration that dissolves in the medium under given conditions.

The series is described as follows: Solubility of Diamine in various kinds of solvents. It counts as physicochemical. The settings on record: for solubility: organic solvent or mixture, thermodynamic from solid, Sample 30 mg/solvent 2 mL. On the procedure:
Melting points and solubilities in various kinds of solvents of the diamines obtained in the above-described Examples and Comparative Examples are shown in Table 1 below. In the following Table 1, the evaluation +++ indicates soluble at room temperature, the evaluation ++ indicates soluble by heating, the evaluation + indicates half-soluble by heating, and the evaluation − indicates insoluble in solvent.
Sample 30 mg/solvent 2 mL, the evaluation +++ indicates soluble at room temperature, the evaluation ++ indicates soluble by heating, the evaluation + indicates half-soluble by heating, and the evaluation − indicates insoluble.

The mark [1] stands for this setting: MC (methyl cellosolve), MC (methyl cello solve), read-out: Solubility in MC.
Where [2] appears, read: Acetone, read-out: Solubility in Acetone.
Setting [3] is: Acetonitrile, read-out: Solubility in Acetonitrile.
[4] abbreviates: Chloroform, read-out: Solubility in Chloroform.
Setting [5] is: DMF (N,N-dimethylformamide), read-out: Solubility in DMF.
Setting [6] is: DMSO (dimethylsulfoxide), read-out: Solubility in DMSO.
Setting [7] is: Ethyl acetate, read-out: Solubility in Ethyl acetate.
[8] abbreviates: Isopropanol, read-out: Solubility in Isopropanol.
[9] abbreviates: Methanol, read-out: Solubility in Methanol.
[10] abbreviates: THF, read-out: Solubility in THF.
Where [11] appears, read: Toluene, read-out: Solubility in Toluene.
Setting [12] is: m-cresol, read-out: Solubility in m-cresol.

Like-named read-outs stand apart in the source and are kept apart here. A value given as a limit tells only on which side of the number the result lay.

On to `Cc1cc(OC(=O)c2cccc(N)c2)ccc1OC(=O)c1cccc(N)c1` [Example 6, 1-methyl-2,5-bis(3-aminobenzoyloxy)benzene], for which the solubility reads like this: under setting [1], above 15 mg/mL; under setting [2], above 15 mg/mL; under setting [3], above 15 mg/mL; under setting [4], above 15 mg/mL; under setting [5], above 15 mg/mL; under setting [6], above 15 mg/mL. In addition, the solubility under setting [7] is above 15 mg/mL; the solubility under setting [8] is below 15 mg/mL; the solubility under setting [9] is below 15 mg/mL; the solubility under setting [10] was above 15 mg/mL; the solubility under setting [11] is below 15 mg/mL; the solubility under setting [12] is above 15 mg/mL.
Consider `Nc1cccc(C(=O)Oc2ccc(S(=O)(=O)c3ccc(OC(=O)c4cccc(N)c4)cc3)cc2)c1` [Example 4, bis[4-(3-aminobenzoyloxy)phenyl]sulfone], for which the solubility runs as follows: under setting [1], below 15 mg/mL; under setting [2], below 15 mg/mL; under setting [3], below 15 mg/mL; under setting [4], below 15 mg/mL; under setting [5], above 15 mg/mL; under setting [6], above 15 mg/mL. In addition, the solubility under setting [7] was below 15 mg/mL; the solubility under setting [8] was below 15 mg/mL; the solubility under setting [9] is below 15 mg/mL; the solubility under setting [10] is below 15 mg/mL; the solubility under setting [11] was below 15 mg/mL; the solubility under setting [12] was above 15 mg/mL.
Turning to `Nc1cccc(C(=O)Oc2ccc(C(c3ccc(OC(=O)c4cccc(N)c4)cc3)(C(F)(F)F)C(F)(F)F)cc2)c1` [Example 2, 2,2′-bis[4-(3-aminobenzoyloxy)phenyl]hexafluoropropane], the “Solubility in the various kinds of solvents (in words)” value (“Solubility in the various kinds” for short) is given as “easily dissolved in various solvents”. The solubility under setting [1] was above 15 mg/mL. Also, under setting [2], the solubility was above 15 mg/mL. In addition, under setting [3], the solubility is above 15 mg/mL. Moreover, the solubility under setting [4] was below 15 mg/mL. In addition, the solubility under setting [5] was above 15 mg/mL. For the same compound, under setting [6], the solubility was above 15 mg/mL. Also, the solubility under setting [7] was above 15 mg/mL. Further, under setting [8], the solubility was below 15 mg/mL. Moreover, the solubility under setting [9] was above 15 mg/mL. Further, the solubility under setting [10] was above 15 mg/mL. In addition, the solubility under setting [11] is below 15 mg/mL. Also, the solubility under setting [12] is above 15 mg/mL.
`Nc1ccc(C(=O)Oc2ccc(OC(=O)c3ccc(N)cc3)cc2)cc1` [Com. Ex. 1, 1,4-bis(4-aminobenzoyloxy)benzene, reference compound]: the “Solubility in the various kinds” value is reported as “hot-dissolved only in DMF”. For the same compound, the solubility under setting [1] is below 15 mg/mL. Also, the solubility under setting [2] was below 15 mg/mL. In addition, the solubility under setting [3] is below 15 mg/mL. In addition, the solubility under setting [4] is below 15 mg/mL. Moreover, the solubility under setting [5] is below 15 mg/mL. Moreover, the solubility under setting [6] was below 15 mg/mL. For the same compound, under setting [7], the solubility is below 15 mg/mL. For the same compound, the solubility under setting [8] was below 15 mg/mL. Further, the solubility under setting [10] was below 15 mg/mL. The solubility under setting [11] was below 15 mg/mL. The solubility under setting [12] is below 15 mg/mL.
`Cc1cc(OC(=O)c2cccc(N)c2)c(C)c(C)c1OC(=O)c1cccc(N)c1` [Example 8, 1,2,4-trimethyl-3,6-bis(3-aminobenzoyloxy)benzene]: the solubility runs as follows: under setting [1], above 15 mg/mL; under setting [2], above 15 mg/mL; under setting [3], above 15 mg/mL; under setting [4], above 15 mg/mL; under setting [5], above 15 mg/mL; under setting [6], above 15 mg/mL. The solubility runs as follows: under setting [7], above 15 mg/mL; under setting [8], below 15 mg/mL; under setting [9], below 15 mg/mL; under setting [10], above 15 mg/mL; under setting [11], below 15 mg/mL; under setting [12], above 15 mg/mL.
Consider `Cc1cc(OC(=O)c2ccc(N)cc2)ccc1OC(=O)c1ccc(N)cc1` [Com. Ex. 2, 2,5-bis(4-aminobenzoyloxy)toluene, reference compound], for which the “Solubility in the various kinds” value is “hot-dissolved barely in a high-polar solvent”. In addition, the solubility under setting [1] is below 15 mg/mL. Besides, the solubility under setting [2] is below 15 mg/mL. The solubility under setting [3] is below 15 mg/mL. Moreover, under setting [4], the solubility was below 15 mg/mL. Also, under setting [5], the solubility was above 15 mg/mL. Moreover, under setting [6], the solubility was below 15 mg/mL. The solubility under setting [7] is below 15 mg/mL. Moreover, the solubility under setting [8] was below 15 mg/mL. Besides, under setting [9], the solubility was below 15 mg/mL. For the same compound, under setting [10], the solubility was below 15 mg/mL. Under setting [11], the solubility was below 15 mg/mL. Moreover, under setting [12], the solubility was below 15 mg/mL.
